The structures appear in SMILES notation. Structures can show the parent of a compound that is named as a salt.

By melting point is commonly meant the temperature, or range, at which the solid turns liquid.

Test system in the first series: not given
Conditions: not given
Compound `CN(CCC(Oc1ccc(C(=O)c2cccc3ccccc23)cc1)c1ccc(F)cc1)CC(=O)O` (stereo not shown) (as salt: salt) returned a melting point of 91 to 100 °C.

As to `CN(CCC(Oc1ccc(C(=O)c2ccc(C(F)(F)F)cc2)cc1)c1ccc(Cl)cc1)CC(=O)O` (stereo not shown) (as salt: salt), the melting point lay in the range of 63 to 70 °C.

The compound `CN(CCC(Oc1ccc(C(=O)c2nc3ccccc3s2)cc1)c1ccc(F)cc1)CC(=O)O` (stereo not shown) (as salt: salt) returned a melting point of 105 to 111 °C.

As for `CN(CCC(Oc1ccc(S(=O)(=O)c2ccccc2)cc1)c1ccccc1)CC(=O)O` (stereo not shown) (as salt: salt), the melting point was in the range of 95 to 100 °C.

On to `CN(CCC(Oc1ccc(C(=O)c2ccccc2)cc1)c1ccc(F)cc1)CC(=O)O` (stereo not shown) (as salt: salt), for which the melting point was 80 to 95 °C.

`CC(C)c1ccc(C(=O)c2ccc(OC(CCN(C)CC(=O)O)c3ccc(F)cc3)cc2)cc1` (stereo not shown) (as salt: salt) registered a melting point of 70 to 80 °C.

In the case of `Cc1cnc(C(=O)c2ccc(OC(CCN(C)CC(=O)O)c3ccc(Cl)cc3)cc2)s1` (stereo not shown) (as salt: salt), the melting point lay within 182 to 192 °C.

In the case of `CN(CCC(Oc1ccc(C(=O)c2ccc3ccccc3c2)cc1)c1ccc(F)cc1)CC(=O)O` (stereo not shown) (as salt: salt), the melting point lay in the range of 87 to 97 °C.

As to `CN(CCC(Oc1ccc(C(=O)c2ccc3ccccc3c2)cc1)c1ccccc1)CC(=O)O` (stereo not shown) (as salt: salt), the melting point lay within 77 to 89 °C.

On to `Cc1cccc(C(=O)c2ccc(OC(CCN(C)CC(=O)O)c3ccc(F)cc3)cc2)c1C` (stereo not shown) (as salt: salt), for which the melting point lay in the range of 83 to 93 °C.

As to `CN(CCC(Oc1ccc(C(=O)c2ccc(C(F)(F)F)cc2)cc1)c1ccccc1)CC(=O)O` (stereo not shown) (as salt: salt), the melting point was 65 to 83 °C.

With `CN(CCC(Oc1ccc(C(=O)c2ccc(F)cc2)cc1)c1ccccc1)CC(=O)O` (stereo not shown) (as salt: salt), the melting point lay in the range of 65 to 83 °C.

The compound `CN(CCC(Oc1ccc(C(=O)c2ccccc2F)cc1)c1ccc(F)cc1)CC(=O)O` (stereo not shown) (as salt: salt) registered a melting point of 65 to 75 °C.

`CN(CCC(Oc1ccc(C(=O)c2cc(C(F)(F)F)cc(C(F)(F)F)c2)cc1)c1ccc(F)cc1)CC(=O)O` (stereo not shown) registered a melting point of 60 to 75 °C.

Consider `Cc1cccc(C(=O)c2ccc(OC(CCN(C)CC(=O)O)c3ccc(Cl)cc3)cc2)c1C` (stereo not shown) (as salt: salt), for which the melting point was 85 to 93 °C.

In the case of `CN(CCC(Oc1cccc(C(=O)c2ccncc2)c1)c1ccc(F)cc1)CC(=O)O` (stereo not shown), the melting point was in the range of 60 to 70 °C.

Take `CN(CCC(Oc1ccc(C(=O)c2ccsc2)cc1)c1ccc(Cl)cc1)CC(=O)O` (stereo not shown) (as salt: salt): the melting point lay within 91 to 110 °C.

Compound `CN(CCC(Oc1ccc(C(=O)c2ccsc2)cc1)c1ccc(F)cc1)CC(=O)O` (stereo not shown) (as salt: salt) displayed a melting point of 65 to 75 °C.

In turn, `Cc1ccc(C(=O)c2ccc(OC(CCN(C)CC(=O)O)c3ccc(F)cc3)cc2)cc1` (stereo not shown) (as salt: salt) had a melting point of 60 to 70 °C.

Compound `CN(CCC(Oc1ccc(C(=O)c2ccccn2)cc1)c1ccc(F)cc1)CC(=O)O` (stereo not shown) (as salt: salt) displayed a melting point of 68 to 80 °C.

`CN(CCC(Oc1cccc(C(=O)c2ccncc2)c1)c1ccc(Cl)cc1)CC(=O)O` (stereo not shown) registered a melting point of 68 to 78 °C.

With `CN(CCC(Oc1ccc(C(=O)c2ccc(Cl)cc2)cc1)c1ccc(F)cc1)CC(=O)O` (stereo not shown) (as salt: salt), the melting point lay in the range of 71 to 85 °C.

`COc1ccc(C(=O)c2ccc(OC(CCN(C)CC(=O)O)c3ccc(Cl)cc3)cc2)cc1` (stereo not shown) (as salt: salt) showed a melting point of 60 to 70 °C.

On to `Cc1cccc(C(=O)c2ccc(OC(CCN(C)CC(=O)O)c3ccc(F)cc3)cc2)c1` (stereo not shown) (as salt: salt), for which the melting point fell in the range of 75 to 85 °C.

`CN(CCC(Oc1ccc(C(=O)c2ccccc2F)cc1)c1ccc(Cl)cc1)CC(=O)O` (stereo not shown) (as salt: salt) returned a melting point of 75 to 85 °C.

The compound `CN(CCC(Oc1ccc(C(=O)c2ccncc2)cc1)c1ccc(F)cc1)CC(=O)O` (stereo not shown) (as salt: salt) came in with a melting point of 52 to 65 °C.

`CN(CCC(Oc1ccc(C(=O)c2c(F)cccc2F)cc1)c1ccc(F)cc1)CC(=O)O` (stereo not shown) (as salt: salt): the melting point lay in the range of 77 to 87 °C.

The compound `Cc1ccc(C(=O)c2ccc(OC(CCN(C)CC(=O)O)c3ccc(Cl)cc3)cc2)cc1` (stereo not shown) (as salt: salt) yielded a melting point of 65 to 71 °C.

The compound `Cc1ccc(C(=O)c2ccc(OC(CCN(C)CC(=O)O)c3ccccc3)cc2)cc1` (stereo not shown) (as salt: salt) displayed a melting point of 85 to 95 °C.

Take `Cc1cccnc1C(=O)c1ccc(OC(CCN(C)CC(=O)O)c2ccc(F)cc2)cc1` (stereo not shown) (as salt: salt): the melting point lay within 65 to 73 °C.

`CN(CCC(Oc1ccc(C(=O)c2cc3ccccc3s2)cc1)c1ccc(F)cc1)CC(=O)O` (stereo not shown) (as salt: salt) registered a melting point of 90 to 100 °C.

The compound `Cc1cnc(C(=O)c2ccc(OC(CCN(C)CC(=O)O)c3ccc(F)cc3)cc2)s1` (stereo not shown) (as salt: salt) displayed a melting point of 95 to 110 °C.

Turning to `CN(CCC(Oc1ccc(C(=O)c2ccc(C(F)(F)F)cc2)cc1)c1ccc(F)cc1)CC(=O)O` (stereo not shown) (as salt: salt), the melting point lay in the range of 58 to 72 °C.

For the compound `CN(CCC(Oc1ccc(C(=O)c2ccc(F)cc2F)cc1)c1ccc(F)cc1)CC(=O)O` (stereo not shown) (as salt: salt), the melting point was 65 to 75 °C.

`CN(CCC(Oc1ccc(C(=O)c2cc3ccccc3s2)cc1)c1ccc(Cl)cc1)CC(=O)O` (stereo not shown) (as salt: salt) displayed a melting point of 101 to 112 °C.

For `CN(CCC(Oc1ccc(C(=O)c2ccc(F)cc2F)cc1)c1ccc(Cl)cc1)CC(=O)O` (stereo not shown) (as salt: salt), the melting point is 75 to 85 °C.

Take `CN(CCC(Oc1ccc(C(=O)c2ccc(Cl)cc2)cc1)c1ccc(Cl)cc1)CC(=O)O` (stereo not shown) (as salt: salt): the melting point was in the range of 63 to 68 °C.

The compound `Cc1ccc(C(=O)c2ccc(OC(CCN(C)CC(=O)O)c3ccc(F)cc3)cc2)nc1` (stereo not shown) came in with a melting point of 55 to 65 °C.

Take `CN(CCC(Oc1ccc(C(=O)c2nccs2)cc1)c1ccc(F)cc1)CC(=O)O` (stereo not shown) (as salt: salt): the melting point lay within 98 to 108 °C.

`CN(CCC(Oc1ccc(C(=O)c2nccs2)cc1)c1ccc(Cl)cc1)CC(=O)O` (stereo not shown) displayed a melting point of 80 to 100 °C.

`COc1ccc(C(=O)c2ccc(OC(CCN(C)CC(=O)O)c3ccc(F)cc3)cc2)cc1` (stereo not shown) (as salt: salt) registered a melting point of 75 to 85 °C.

For `CN(CCC(Oc1ccc(C(=O)c2ccncc2)cc1)c1ccc(Cl)cc1)CC(=O)O` (stereo not shown), the melting point fell in the range of 72 to 82 °C.

The next series concerns NMDA receptor. Conditions: effect blocked by a specific NMDA-site antagonist and a glycine-site antagonist; cited from earlier work.
Consider `CN(CCC(Oc1ccc(-c2ccccc2)cc1)c1ccc(F)cc1)CC(=O)O` (stereo not shown) [NFPS], for which the “post synaptic current driven by the NMDA receptor” value was “increased the post synaptic current driven by the NMDA receptor”.

Values taken from patent US6506780B2, “Benzophenones and sulfones as inhibitors of glycine uptake” (Pfizer Inc., priority 2000, dated 2003).
